In ChEMBL document CHEMBL1201862, “PubChem BioAssay data set” (2004):
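Tested at 5 concentrations; 48 h exposure; 96-well plates; endpoints linearly interpolated, else capped at highest concentration. GI50 is the concentration that inhibits growth by half.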 Active and inactive are the calls of the source. No stated cut-off is given here; in the data, active = GI50 up to about 1.1 µM and inactive = higher.

Experiments:
Assay in all cases: NCI-60 cell line screen, 48 h
EKVX = system: EKVX
DU-145 = system: DU-145
OVCAR-8 = system: OVCAR-8
MDA-MB-231 = system: MDA-MB-231
RPMI-8226 = system: RPMI-8226
A498 = system: A498
PC-3 = system: PC-3
SN12C = system: SN12C
SW-620 = system: SW-620
NCI-H522 = system: NCI-H522
HL-60 = system: HL-60
UO-31 = system: UO-31
OVCAR-5 = system: OVCAR-5
OVCAR-4 = system: OVCAR-4
ACHN = system: ACHN
UACC-62 = system: UACC-62
Hs-578T = system: Hs-578T
MCF7 = system: MCF7
MDA-MB-435 = system: MDA-MB-435
DMS-273 = system: DMS-273

SMILES	GI50 (EKVX)	GI50 (DU-145)	GI50 (OVCAR-8)	GI50 (MDA-MB-231)	GI50 (RPMI-8226)	GI50 (A498)	GI50 (PC-3)	GI50 (SN12C)	GI50 (SW-620)	GI50 (NCI-H522)	GI50 (HL-60)	GI50 (UO-31)	GI50 (OVCAR-5)	GI50 (OVCAR-4)	GI50 (ACHN)	GI50 (UACC-62)	GI50 (Hs-578T)	GI50 (MCF7)	GI50 (MDA-MB-435)	GI50 (DMS-273)
CC(C)(C)c1cc(C(P(=O)(c2ccccc2)c2ccccc2)P(=O)(c2ccccc2)c2ccccc2)cc(C(C)(C)C)c1O	2.98 µM (inactive)	3.3 µM (inactive)	2.44 µM (inactive)	2.76 µM (inactive)	3.19 µM (inactive)	2.74 µM (inactive)	2.67 µM (inactive)	3.39 µM (inactive)	3.21 µM (inactive)	2.28 µM (inactive)	3.03 µM (inactive)	2.24 µM (inactive)	2.56 µM (inactive)	3.35 µM (inactive)	3.18 µM (inactive)	1.58 µM (inactive)	2.48 µM (inactive)	2.28 µM (inactive)	1.9 µM (inactive)	
CC(=O)CCC[C@@H](C)[C@@H]1O[C@H]([C@@]2(C)CCC(=O)O2)C[C@H]2C(CSc3ccccc3)C(=O)O[C@@H]12 (some centres undefined)	9.98 µM (inactive)	14.6 µM (inactive)	20 µM (inactive)	18.1 µM (inactive)	13.3 µM (inactive)	27.4 µM (inactive)	19 µM (inactive)	14.9 µM (inactive)	10.3 µM (inactive)	3.6 µM (inactive)	2.42 µM (inactive)	14.2 µM (inactive)	15.1 µM (inactive)	13.2 µM (inactive)	14.3 µM (inactive)	14.5 µM (inactive)	12.4 µM (inactive)	9.55 µM (inactive)	16.1 µM (inactive)	
NNC(=O)N/N=C1/C(=O)N(c2ccc(Cl)c(Cl)c2)C(=O)C(=O)C1c1nc2ccccc2o1 (centres undefined)	45.3 µM (inactive)		> 100 µM (inactive)			> 100 µM (inactive)		> 100 µM (inactive)	> 100 µM (inactive)	62.4 µM (inactive)	42.9 µM (inactive)	> 100 µM (inactive)	> 100 µM (inactive)	> 100 µM (inactive)	> 100 µM (inactive)	67.1 µM (inactive)				> 100 µM (inactive)
Cn1cc(NC(=O)c2cc(NC(=O)CCCCCCCC(=O)Nc3cc(C(=O)Nc4cc(C(=O)NCCC(=N)N)n(C)c4)n(C)c3)cn2C)cc1C(=O)NCCC(=N)N	22 µM (inactive)		19.1 µM (inactive)			13.7 µM (inactive)		12.6 µM (inactive)	32.7 µM (inactive)		3.15 µM (inactive)	> 100 µM (inactive)	> 100 µM (inactive)	46.1 µM (inactive)	58.1 µM (inactive)	15.7 µM (inactive)				11.2 µM (inactive)
CCCCCCCCCCCCCCNCC(OC)OC	18.2 µM (inactive)		20.1 µM (inactive)			19.8 µM (inactive)		15.1 µM (inactive)	16.1 µM (inactive)	16.9 µM (inactive)	5.25 µM (inactive)	12.8 µM (inactive)	14.6 µM (inactive)	15.1 µM (inactive)	16.2 µM (inactive)	19.6 µM (inactive)				17.5 µM (inactive)
C=C(C)C(=O)OC1C/C(CO)=C\C(O)C/C(C)=C/C2OC(=O)C(=C)C21 (centres undefined)	25.2 µM (inactive)		20.3 µM (inactive)		17.3 µM (inactive)			20 µM (inactive)	16.7 µM (inactive)	12.8 µM (inactive)		> 100 µM (inactive)	45.8 µM (inactive)	25.9 µM (inactive)	21.3 µM (inactive)	19.9 µM (inactive)				27.5 µM (inactive)
Cc1cccc(Cl)c1NC(N)=S	48.2 µM (inactive)		25.8 µM (inactive)		19 µM (inactive)	66.7 µM (inactive)		> 100 µM (inactive)	16.6 µM (inactive)		38.4 µM (inactive)	51.6 µM (inactive)	63.8 µM (inactive)	50.9 µM (inactive)	27.5 µM (inactive)	69.7 µM (inactive)				20.5 µM (inactive)
Cn1ccnc1Sc1ccc(/C=N/NC(=O)c2ccccc2O)cc1[N+](=O)[O-]	94 µM (inactive)	> 100 µM (inactive)	> 100 µM (inactive)	> 100 µM (inactive)	0.0723 µM (active)	> 100 µM (inactive)	56.9 µM (inactive)	55 µM (inactive)	> 100 µM (inactive)	41.7 µM (inactive)	44.9 µM (inactive)	79.1 µM (inactive)	> 100 µM (inactive)	72.6 µM (inactive)	> 100 µM (inactive)	86.1 µM (inactive)	92.5 µM (inactive)	84.3 µM (inactive)	57 µM (inactive)	
COC(=O)c1sc(C(=O)OC)c2c1C[S+]([O-])C2	> 100 µM (inactive)		> 100 µM (inactive)		> 100 µM (inactive)	> 100 µM (inactive)			> 100 µM (inactive)	> 100 µM (inactive)	> 100 µM (inactive)	> 100 µM (inactive)	> 100 µM (inactive)	> 100 µM (inactive)		> 100 µM (inactive)				> 100 µM (inactive)
COc1ccc(C(=O)c2c(-c3ccccc3NC(=O)C(F)(F)F)[nH]c3ccccc23)cc1	11.8 µM (inactive)	5.18 µM (inactive)	6.19 µM (inactive)	7.28 µM (inactive)	4.8 µM (inactive)	2.17 µM (inactive)	5.92 µM (inactive)	14.6 µM (inactive)	4.06 µM (inactive)	7.33 µM (inactive)	2.42 µM (inactive)	5.05 µM (inactive)	12.5 µM (inactive)	4.59 µM (inactive)	3.16 µM (inactive)	12.1 µM (inactive)	18.1 µM (inactive)	1.74 µM (inactive)	9.89 µM (inactive)	
O=C(NCCO)c1cc2c(cn1)[nH]c1ccccc12	> 100 µM (inactive)		> 100 µM (inactive)		> 100 µM (inactive)	> 100 µM (inactive)		> 100 µM (inactive)	> 100 µM (inactive)	> 100 µM (inactive)	> 100 µM (inactive)	> 100 µM (inactive)	> 100 µM (inactive)	> 100 µM (inactive)	> 100 µM (inactive)	> 100 µM (inactive)				> 100 µM (inactive)
CCCCCCCC(=O)OC(COC(=O)Cc1ccccc1)COC(=O)C(C)(C)C (centres undefined)			> 100 µM (inactive)		> 100 µM (inactive)	> 100 µM (inactive)		> 100 µM (inactive)	> 100 µM (inactive)		51.6 µM (inactive)	> 100 µM (inactive)	> 100 µM (inactive)	> 100 µM (inactive)	> 100 µM (inactive)	> 100 µM (inactive)				> 100 µM (inactive)
O=C(/N=C(/Nc1ccccc1)SCS/C(=N\C(=O)c1ccco1)Nc1ccccc1)c1ccco1	33.9 µM (inactive)		50.6 µM (inactive)		> 100 µM (inactive)	27.1 µM (inactive)		84.1 µM (inactive)	> 100 µM (inactive)	27.4 µM (inactive)		44.8 µM (inactive)	> 100 µM (inactive)	82.2 µM (inactive)	38.8 µM (inactive)	> 100 µM (inactive)				37.8 µM (inactive)
CCN(CC)c1ccc(/N=N\c2ccc(-c3nc4ccc[n+](C)c4s3)cc2)cc1	24 µM (inactive)		8.57 µM (inactive)		2.79 µM (inactive)	13.4 µM (inactive)		4.29 µM (inactive)	4.75 µM (inactive)	3.06 µM (inactive)	1.77 µM (inactive)	22.8 µM (inactive)	17.1 µM (inactive)	6.5 µM (inactive)		7.59 µM (inactive)				3.65 µM (inactive)
CC#N.O[C@@H]1CCCC[C@H]1O.O[C@@H]1CCCC[C@H]1O.[TeH2]			19 µM (inactive)		26.7 µM (inactive)	> 100 µM (inactive)		29.1 µM (inactive)	16.7 µM (inactive)	37.2 µM (inactive)	14.6 µM (inactive)	47 µM (inactive)	23.8 µM (inactive)	61.8 µM (inactive)	46.3 µM (inactive)	82.2 µM (inactive)				18.1 µM (inactive)
C[C@H](CCC(=O)O)[C@H]1CC[C@H]2[C@@H]3[C@H](O)[C@H](O)[C@@H]4C[C@H](O)CC[C@]4(C)[C@H]3CC[C@]12C [HYOCHOLIC ACID]	> 100 µM (inactive)	> 100 µM (inactive)	> 100 µM (inactive)	> 100 µM (inactive)	> 100 µM (inactive)	> 100 µM (inactive)	> 100 µM (inactive)	> 100 µM (inactive)	> 100 µM (inactive)	> 100 µM (inactive)	> 100 µM (inactive)	> 100 µM (inactive)	> 100 µM (inactive)	> 100 µM (inactive)	> 100 µM (inactive)	> 100 µM (inactive)	> 100 µM (inactive)	> 100 µM (inactive)	> 100 µM (inactive)	
C[C@H]1CC[C@]2(NC1)O[C@H]1C[C@H]3[C@@H]4CC[C@H]5C[C@@H](O[C@@H]6O[C@H](CO)[C@H](O[C@@H]7O[C@H](CO)[C@@H](O)[C@H](O[C@@H]8OC[C@@H](O)[C@H](O)[C@H]8O)[C@H]7O[C@@H]7O[C@H](CO)[C@@H](O)[C@H](O)[C@H]7O)[C@H](O)[C@H]6O)CC[C@]5(C)[C@H]4CC[C@]3(C)[C@H]1[C@@H]2C [TOMATINE]	0.836 µM (active)	1.64 µM (inactive)	2.24 µM (inactive)	1.3 µM (inactive)	0.766 µM (active)	1.87 µM (inactive)	0.719 µM (active)	1.43 µM (inactive)	2.04 µM (inactive)	1.62 µM (inactive)	2.48 µM (inactive)	1.42 µM (inactive)	1.24 µM (inactive)	1.39 µM (inactive)	1.71 µM (inactive)	1.01 µM (active)	1.64 µM (inactive)	2.32 µM (inactive)	1.41 µM (inactive)	
